Measured values from patent publication US12391695B2, “PRMT5 inhibitors” (Lupin Limited, priority 2019, dated 2025).
Read-outs that look alike come from different tables or passages of the source.

Legend:
PRMT5:MEP50 = PRMT5:MEP50 (Homo sapiens, UniProt O14744); assay: PRMT5 biochemical assay (HTRF, biotinylated H4R3 substrate), protocols 1 and 2; details: 1 μM SAM, 50 nM biotinylated H4R3, protocol 1 or 2 not given, read-out: IC50 (activity range), inhibition of PRMT5
Experimental: (§1) Inhibitory effect of compounds on PRMT5 was assessed using HTRF detection technology in biochemical assay. Biotinylated H4R3 (residues 1-21) was used as a substrate. Compounds were pre-incubated with 15-25 ng PRMT5:MEP50 per well of a 384-well plate for 30 min at room temperature in the assay buffer containing 20 mM Bicine, pH 7.6, 25 mM NaCl, 2 mM DTT, 0.01% Chicken albumin and 0.01% Tween-20. Reaction was initiated by adding 1 μM of SAM and 50 nM biotinylated H4R3. Total assay volume was 15 μL. Reaction was continued for 120 min at room temperature. Then detection solution containing Streptavidin-Eu cryptate, anti-rabbit IgG-XL-665, Histone H4R3 Dimethyl Symmetric (H4R3me2s) Polyclonal Antibody, all prepared in HTRF detection buffer was added and further incubated for 30 min at room temperature. HTRF signal was recorded in PHERAStar microplate reader. Ratio of signal obtained at 665 nm and 620 nm was used to compute the percent inhibition of compound as follows % Inhibition=100−((Test Ratio−Negative control Ratio)/(Positive control Ratio−Negative control Ratio)*100) where Positive control=PRMT5+SAM+H4R3 Negative control=PRMT5+H4R3 Biochemical Assay Protocol 2
as §1, with “2.5” for “15-25”, “4 h” for “120 min”, “control=PRMT5+H4R3” for “control=PRMT5+H4R3 Biochemical Assay Protocol 2”

SDMA = SDMA inhibition assay in Z-138 cells (ELISA with anti-SDMA antibody); type: cell-based; details: Homo sapiens, Z-138, 48 h, 48 h treatment
Experimental: Z-138 cells (ATCC, CRL-3001™) were seeded at a density of 1 million cells/well in transparent, flat bottomed tissue culture grade 48-well plates. Cells were treated with various concentration of test compounds for a period of 48 h. Cell lysate was prepared using 1× CST Lysis buffer (Cell Signaling Technology, USA) and 500 ng/well/50 μL of lysate in pH 9.6 carbonate buffer was coated on 96-well Maxisorb plate and incubated overnight at 4° C. The plate was washed twice in 1×PBS containing 0.05% Tween 20 and blocked in 1% BSA for 1 h at ambient temperature. Further, the plate was incubated first with primary antibody (anti-SDMA antibody; CST #13222s) at ambient temperature for 2 h and then with HRP-conjugated secondary antibody at ambient temperature for 1 h with 2 intermittent washing steps in between.
For luminiscence based detection, HRP substrates (substrate A+substrate B in a 1:1 proportion) were added followed by luminiscence reading after 30 min in Synergy™ 2 reader (Biotek, USA).
For absorbance based detection, TMB substrate was added followed by addition of STOP solution (2N H2SO4) post colour development and absorbance (excitation 450 nm and emission 540 nm) was measured in Synergy™ 2 reader (Biotek, USA).
% inhibition of SDMA was calculated relative to the vehicle control samples containing media with 0.1% DMSO alone as per the formula below. (Avg. of Untreated Control−Avg. of Test)×100 Avg. Of Untreated Control
The IC50 values of individual compounds were calculated with Non Linear Regression Analysis using Graph Pad Prism (Graph Pad software, Inc, USA).

Z-138 cells = assay: Anti-cancer assay (Z-138), cell viability by CellTiterGlo; type: cell-based; details: Homo sapiens, 96 h treatment, read-out: IC50 (activity range), inhibition of cell viability
Experimental: Z-138 cells were seeded at a density of 2000-3000 cells per well in culture media (IMDM+10% FBS). PANC-1 (ATCC, CRL-1469™) and MIA PaCa-2 (ATCC, CRL-1420™) cells were seeded at a density of 200-300 cells per well in culture media (DMEM+10% FBS). Cells were seeded in opaque, flat bottomed tissue culture grade 96-well plates and Z-138 cells (suspension) were seeded and treated on the same day with various concentrations of test compounds. PANC-1 and MIA PaCa-2 cells, being adherent, were kept for overnight settlement at standard cell culture conditions (37° C., 5% CO2). On the following day, cells were treated with various concentrations of test compounds. Cells were treated with test compounds for a period of 96 h, 7 days and 10 days, for Z-138 cells, PANC-1 cells and MIA PaCa-2 cells, respectively. Cell viability was assessed using CellTiterGlo™ (Promega, USA) as per manufacturer's instructions. Relative Light Units (RLU) were read in Synergy™ 2 reader (Biotek, USA). The assay measures cellular ATP as an indicator of cell viability. RLU is proportional to the number of viable cells in the respective well. % inhibition of cell viability was calculated relative to the vehicle control samples containing media with 0.1% DMSO alone as per the formula below. (Avg. of Untreated Control−Avg. of Test)×100 Avg. Of Untreated Control
The IC50 values of individual compounds were calculated with Non Linear Regression Analysis using Graph Pad Prism (Graph Pad software, Inc, USA). • Anti-Cancer Assay (Z-138)

[1] = read-out: IC50 (activity range), SDMA inhibition
[2] = range with mixed units pM/nM, units kept in the value

PRMT5:MEP50, sequence (O14744 whole entry, the tested form may be a part): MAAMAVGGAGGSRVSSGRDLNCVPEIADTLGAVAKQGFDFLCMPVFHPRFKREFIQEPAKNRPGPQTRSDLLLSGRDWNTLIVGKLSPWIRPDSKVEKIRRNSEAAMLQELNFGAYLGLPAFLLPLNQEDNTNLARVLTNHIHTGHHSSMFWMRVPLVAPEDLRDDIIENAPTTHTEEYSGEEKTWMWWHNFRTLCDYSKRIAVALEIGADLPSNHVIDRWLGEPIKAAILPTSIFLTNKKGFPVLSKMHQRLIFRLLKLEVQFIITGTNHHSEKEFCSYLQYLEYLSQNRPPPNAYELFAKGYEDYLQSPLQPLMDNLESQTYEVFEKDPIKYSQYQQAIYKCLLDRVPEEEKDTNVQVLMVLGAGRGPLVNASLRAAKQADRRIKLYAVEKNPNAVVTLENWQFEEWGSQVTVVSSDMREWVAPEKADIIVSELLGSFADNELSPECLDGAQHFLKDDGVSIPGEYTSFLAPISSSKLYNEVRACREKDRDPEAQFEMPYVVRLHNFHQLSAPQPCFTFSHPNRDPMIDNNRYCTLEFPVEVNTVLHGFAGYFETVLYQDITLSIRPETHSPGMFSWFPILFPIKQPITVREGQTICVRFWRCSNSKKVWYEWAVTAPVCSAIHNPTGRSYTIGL
PRMT5:MEP50, sequence (Q9BQA1 whole entry partner, the tested form may be a part): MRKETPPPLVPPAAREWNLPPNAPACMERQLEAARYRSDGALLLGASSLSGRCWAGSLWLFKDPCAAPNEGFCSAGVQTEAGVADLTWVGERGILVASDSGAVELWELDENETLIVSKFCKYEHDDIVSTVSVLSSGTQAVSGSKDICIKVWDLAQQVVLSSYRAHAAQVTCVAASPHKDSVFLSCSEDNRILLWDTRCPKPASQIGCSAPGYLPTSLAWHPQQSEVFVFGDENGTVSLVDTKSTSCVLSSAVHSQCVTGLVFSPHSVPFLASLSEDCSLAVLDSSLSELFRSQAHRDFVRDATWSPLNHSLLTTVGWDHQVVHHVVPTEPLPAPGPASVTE

Row | IC50 (PRMT5:MEP50) | IC50 (SDMA; [1]) | IC50 (Z-138 cells; [2]) | IC50 (SDMA; [2]) | IC50 (Z-138 cells) | Structure (SMILES)
1 | > 0.95 nM | – | – | – | – | Nc1nc2cc(CCC3=C[C@@H](n4ncc5c4ncn4ccnc54)[C@H](O)[C@@H]3O)cc(F)c2cc1Cl [Compound 29, (1S,2R,5R)-3-(2-(2-Amino-3-chloro-5-fluoroquinolin-7-yl)ethyl)-5-(7H-imidazo[1,2-c]pyrazolo[4,3-e]pyrimidin-7-yl)cyclopent-3-ene-1,2-diol]
2 | > 0.95 nM | – | – | – | > 1000 pM | Nc1nc2cc(CCC3=C[C@@H](n4ccc5cn6ccnc6nc54)[C@H](O)[C@@H]3O)ccc2cc1Cl [Compound 28, (1S,2R,5R)-3-(2-(2-Amino-3-chloroquinolin-7-yl)ethyl)-5-(8H-imidazo[1,2-a]pyrrolo[2,3-d]pyrimidin-8-yl)cyclopent-3-ene-1,2-diol]
3 | > 0.95 nM | – | – | – | > 1000 pM | Nc1nc2cc(CCC3=C[C@@H](n4ccc5c4ncn4ccnc54)[C@H](O)[C@@H]3O)cc(F)c2cc1Cl [Compound 27, (1S,2R,5R)-3-(2-(2-Amino-3-chloro-5-fluoroquinolin-7-yl)ethyl)-5-(7H-imidazo[1,2-c]pyrrolo[3,2-e]pyrimidin-7-yl)cyclopent-3-ene-1,2-diol]
4 | – | 1100 to 50000 pM | – | – | > 1000 pM | CC1Cc2c(F)c(C(F)F)cc(CCC3=C[C@@H](n4ccc5c(N)ncnc54)[C@H](O)[C@@H]3O)c2CN1 (single isomer, unassigned) [Compound 23B]
5 | 0.25 to 0.95 nM | – | – | 100 to 1000 pM | – | CONc1ncnc2c1ccn2[C@@H]1C=C(CCc2cc(F)c3cc(Cl)c(N)nc3c2)[C@@H](O)[C@H]1O [Compound 30, (1S,2R,5R)-3-(2-(2-Amino-3-chloro-5-fluoroquinolin-7-yl)ethyl)-5-(4-(methoxyamino)-7H-pyrrolo[2,3-d]pyrimidin-7-yl)cyclopent-3-ene-1,2-diol]

Second part, the compound before the results:

Row | Structure (SMILES) | IC50 (PRMT5:MEP50) | IC50 (SDMA; [1]) | IC50 (Z-138 cells; [2]) | IC50 (SDMA; [2]) | IC50 (Z-138 cells)
6 | Nc1ncnc2c1ccn2[C@@H]1C=C(CCc2cc(C(F)F)c(F)c3c2CNCC3)[C@@H](O)[C@H]1O [Compound 13, (1S,2R,5R)-5-(4-amino-7H-pyrrolo[2,3-d]pyrimidin-7-yl)-3-(2-(6-(difluoromethyl)-5-fluoro-1,2,3,4-tetrahydroisoquinolin-8-yl)ethyl)cyclopent-3-ene-1,2-diol] | 0.25 to 0.95 nM | 1100 to 50000 pM | 101 to 1000 pM | – | –
7 | Nc1ncnc2c1ccn2[C@@H]1C=C(CCc2cc(C(F)F)cc3c2CNCC3)[C@@H](O)[C@H]1O [Compound 10, (1S,2R,5R)-5-(4-amino-7H-pyrrolo[2,3-d]pyrimidin-7-yl)-3-(2-(6-(difluoromethyl)-1,2,3,4-tetrahydroisoquinolin-8-yl)ethyl)cyclopent-3-ene-1,2-diol] | 0.25 to 0.95 nM | – | 101 to 1000 pM | 100 to 1000 pM | –
8 | Nc1ccn([C@@H]2C=C(COc3cc(F)c4cc(Cl)c(N)nc4c3)[C@@H](O)[C@H]2O)c(=O)n1 [Compound 16, 4-Amino-1-((1R,4R,5S)-3-(((2-amino-3-chloro-5-fluoroquinolin-7-yl)oxy)methyl)-4,5-dihydroxycyclopent-2-en-1-yl)pyrimidin-2 (1H)-one] | 0.25 to 0.95 nM | – | – | – | –
9 | Nc1nc2cc(OCC3=C[C@@H](n4cnc(N)c(F)c4=O)[C@H](O)[C@@H]3O)cc(F)c2cc1Cl [Compound 19, 6-amino-3-((1R,4R,5S)-3-(((2-amino-3-chloro-5-fluoroquinolin-7-yl)oxy)methyl)-4,5-dihydroxycyclopent-2-en-1-yl)-5-fluoropyrimidin-4 (3H)-one] | > 0.95 nM | – | – | 100 to 1000 pM | > 1000 pM
10 | Nc1ncnc2c1ccn2[C@@H]1C=C(COc2cc(C(F)F)cc3c2CNCC3)[C@@H](O)[C@H]1O [Compound 7, (1S,2R,5R)-5-(4-amino-7H-pyrrolo[2,3-d]pyrimidin-7-yl)-3-(((6-(difluoromethyl)-1,2,3,4-tetrahydroisoquinolin-8-yl)oxy)methyl)cyclopent-3-ene-1,2-diol] | 0.25 to 0.95 nM | 1100 to 50000 pM | – | – | > 1000 pM
11 | Nc1ncnc2c1ccn2[C@@H]1C=C(CCc2ccc(C(F)F)c3c2CNCC3)[C@@H](O)[C@H]1O [Compound 11, (1S,2R,5R)-5-(4-amino-7H-pyrrolo[2,3-d]pyrimidin-7-yl)-3-(2-(5-(difluoromethyl)-1,2,3,4-tetrahydroisoquinolin-8-yl)ethyl)cyclopent-3-ene-1,2-diol] | 0.25 to 0.95 nM | 1100 to 50000 pM | – | – | > 1000 pM
12 | Cc1cc(=O)n([C@@H]2C=C(COc3cc(F)c4cc(Cl)c(N)nc4c3)[C@@H](O)[C@H]2O)cn1 [Compound 18, 3-((1R,4R,5S)-3-(((2-amino-3-chloro-5-fluoroquinolin-7-yl)oxy)methyl)-4,5-dihydroxycyclopent-2-en-1-yl)-6-methylpyrimidin-4 (3H)-one] | > 0.95 nM | 1100 to 50000 pM | – | – | > 1000 pM
13 | Cc1ncnc2c1ccn2[C@@H]1C=C(CCc2cc(C(F)F)cc3c2CNCC3)[C@@H](O)[C@H]1O [Compound 14, (1S,2R,5R)-3-(2-(6-(difluoromethyl)-1,2,3,4-tetrahydroisoquinolin-8-yl)ethyl)-5-(4-methyl-7H-pyrrolo[2,3-d]pyrimidin-7-yl)cyclopent-3-ene-1,2-diol] | 0.25 to 0.95 nM | 1100 to 50000 pM | 101 to 1000 pM | – | –
14 | CC1Cc2c(F)c(C(F)F)cc(CCC3=C[C@@H](n4ccc5c(N)ncnc54)[C@H](O)[C@@H]3O)c2CN1 (single isomer, unassigned) [Compound 23A] | 0.25 to 0.95 nM | – | – | 100 to 1000 pM | –
15 | CC1CNCc2c(CCC3=C[C@@H](n4ccc5c(N)ncnc54)[C@H](O)[C@@H]3O)cc(C(F)F)c(F)c21 (single isomer, unassigned) [Compound 22B] | – | – | – | 100 to 1000 pM | –
16 | Nc1nc2cc(CCC3=C[C@@H](n4cnc5c(N)ncnc54)[C@H](O)[C@@H]3O)cc(F)c2cc1Cl [Compound 1, (1S,2R,5R)-3-(2-(2-Amino-3-chloro-5-fluoroquinolin-7-yl)ethyl)-5-(6-amino-9H-purin-9-yl)cyclopent-3-ene-1,2-diol] | 0.25 to 0.95 nM | – | – | 100 to 1000 pM | –
